In brackets after ≈: the same amount, converted by molar mass.
Experiments:
Aphidius rhopalosiphi = assay: LR50; higher = less toxic; conditions: not reported; mortality
Canidae = conditions: subchronic; duration: 90 days; oral; Dog Other; clinical chemistry
Lepomis macrochirus = conditions: acute; duration: 96 hours; mortality
Oncorhynchus mykiss = conditions: chronic/long-term; duration: 21 days; mortality
Landoltia sp. = conditions: acute; duration: 7 days; biomass
Anabaena flosaquae = conditions: acute; duration: 72 hours; biomass
Bibionidae = conditions: chronic/long-term; duration: 28 days; development
Tagia sp. = conditions: acute, duration: 14 days
Daphnia magna = conditions: chronic/long-term; duration: 21 days; reproduction
Apis mellifera = conditions: acute; duration: 48 hours; oral; unspecified; mortality
Anas platyrhynchos = conditions: oral, mortality

SMILES	LR50 (Aphidius rhopalosiphi)	NOAEL (Canidae)	LC50 (Lepomis macrochirus)	NOEC (Oncorhynchus mykiss)	NOEC (Landoltia sp.)	LC50 (Colinus virginianus; acute, oral, diet, mortality)	LD50 (Colinus virginianus; acute, oral, mortality)	NOEC (Colinus virginianus; reproduction developmental)	NOEC (Anabaena flosaquae)	LD50 (Rattus norvegicus; acute, oral, mortality)	NOAEL (Rattus norvegicus; developmental, development)	NOEL (Rattus norvegicus; reproduction developmental, reproduction)	NOEC (Bibionidae)	NOEC (Tagia sp.; body weight)	LC50 (Tagia sp.; mortality)	NOEC (Daphnia magna)	LD50 (Apis mellifera)	LC50 (Anas platyrhynchos; short-term, feed)	LD50 (Anas platyrhynchos; acute, unspecified)
N#CN [Cyanamide]	432 g/ha	0.6 mg/kg-day	43.1 µg/mL (≈ 1030 µM)	3.7 mg/L	0.5 mg/L	> 1040 mg/kg-day	350 mg/kg-day	13.3 mg/kg-day	0.05 mg/L	223 mg/kg-day	5 mg/kg-day	3.75 mg/kg-day	6.6 mg/L	55.7 mg/kg	> 112 mg/kg	0.1 mg/L	> 10 µg/piece	> 435 mg/kg-day	
N#CN=C(N)N [Cyanoguanidine]																			> 2000 mg/kg-day

From EPA's ToxValDB 9.5 (doi:10.2903/j.efsa.2010.1873)
